# Patent publication US20120263848A1, “Organic Compounds” (priority 2009, published 2012)
# “Also recorded” adds a separate entry of the source.
# Legend:
# Assay type in all cases: in vivo
# [1] = test system: sweet sensitive panelists; assay: Isointensity measurement in water against sucrose solutions (R-index ranking)
# Description: A 1% solution of N-cycloheptyl-2-methylindoline-1-carboxamide was prepared in ethanol. This 1% solution was then further diluted, using water, to create a 5 ppm sample solution of N-cycloheptyl-2-methylindoline-1-carboxamide. To determine the isointensity of this solution a panel of trained experts was then asked to evaluate the taste (in particularly the sweet taste) of this sample solution in comparison to 0.5%, 1% and 1.5% sample sucrose solutions. Panel testing was carried out in the following way: Twenty milliliters of each of the samples was presented blind and in counter balanced order following a William's Latin square design, to 20 sweet sensitive panelists. In two replications (over 1 session), panelists were asked to taste and rank the solutions from least sweet to most sweet. […] A 1% solution of (R)-N-cyclooctyl-2-methylindoline-1-carboxamide was prepared in ethanol. This 1% solution was then further diluted, using water, to create a 2 ppm sample solution of (R)-N-cyclooctyl-2-methylindoline-1-carboxamide. To determine the isointensity of this solution a panel of trained experts was then asked to evaluate the taste (in particularly the sweet taste) of this sample solution in comparison to 0.5%, 1% and 1.5% sample sucrose solutions. Panel testing was carried out in the following way: Twenty milliliters of each of the samples was presented blind and in counter balanced order following a William's Latin square design, to 20 sweet sensitive panelists. In two replications (over 1 session), panelists were asked to taste and rank the solutions from least sweet to most sweet.
# [2] = test system: sweet sensitive panelists; assay: Sweet enhancement in a cola beverage application (7% sucrose cola, R-index ranking)
# Description: A 1% ethanol solution of N-cycloheptyl-2-methylindoline-1-carboxamide was added into a 7% sucrose containing cola solution. […] To determine its isointensity a panel of trained experts was then asked to evaluate the taste (in particularly the sweet taste) of this sample solution in comparison to sample cola solutions containing 7%, 8%, 9% and 10% sucrose but no N-cycloheptyl-2-methylindoline-1-carboxamide. Panel testing was carried out in the following way: Twenty milliliters of each of the sample solutions was presented blind and in random order to 20 sweet sensitive panelists. In two replications (over 1 session), panelists were asked to rank the solutions from least sweet to most sweet. The data was then subjected to an R-index analysis as described in example 15.
# [3] = test system: panel of trained experts; assay: Taste evaluation of diluted sample solutions by a panel of trained experts; details: for taste of sample solutions (inherent sweetness): 1% ethanol solutions diluted with water to differing ppm concentrations; for effectiveness at creating modifying, or enhancing the sweet flavour of compositions and consumable products: general statement of the applicant
# Description: 1% solutions of compounds of formula (I) were prepared in ethanol. These 1% solutions were then further diluted, using water, to create sample solutions of differing ppm concentrations. A panel of trained experts was then asked to evaluate the taste of each sample solution and to comment on any inherent sweetness, other perceived taste, or flavor attributes. After tasting each sample the experts rinsed their mouths with water and a break was observed until the stimulus disappeared. […]
# [4] = test system: sweet sensitive panelists; assay: Sweet enhancement in 7% sucrose (aqueous solution, R-index ranking)
# Description: A 1% ethanol solution of (R)-N-cyclooctyl-2-methylindoline-1-carboxamide was added into an aqueous 7% sucrose solution. […] To determine its isointensity a panel of trained experts was then asked to evaluate the taste (in particularly the sweet taste) of this sample solution in comparison to aqueous sample solutions containing 7%, 8%, 9% and 10% sucrose, but without added (R)-N-cyclooctyl-2-methylindoline-1-carboxamide. Panel testing was carried out in the following way: Twenty milliliters of each of the sample solutions was presented blind and in random order to 20 sweet sensitive panelists. In two replications (over 1 session), panelists were asked to rank the solutions from least sweet to most sweet. The data was then subjected to an R-index analysis as described in example 5.
# [5] = 5 ppm in water vs. 0.5% sucrose solution
# [6] = 5 ppm in water vs. 1.0% sucrose solution
# [7] = 5 ppm in water vs. 1.5% sucrose solution
# [8] = 7% sugar cola + 5 ppm vs. 7% sugar
# [9] = 7% sugar cola + 5 ppm vs. 8% sugar
# [10] = 7% sugar cola + 5 ppm vs. 9% sugar
# [11] = 7% sugar cola + 5 ppm vs. 10% sugar
# [12] = 2 ppm in water vs. 0.5% sucrose solution
# [13] = 2 ppm in water vs. 1.0% sucrose solution
# [14] = 2 ppm in water vs. 1.5% sucrose solution
structure (smiles),measurement,setting,value
"CC1Cc2ccccc2N1C(=O)NC1CCCCCC1 (centres unmarked) [Example 2, N-cycloheptyl-2-methylindoline-1-carboxamide]",Experimental Compound Sweetness,[1]; [5],Iso-sweet; also recorded: iso sweet
same,R-index,[1]; [5],39.38
same,Significantly different (p < 0.05),[1]; [5],No
same,Experimental Compound Sweetness,[1]; [6],significantly less sweet
same,R-index,[1]; [6],78.63
same,Significantly different (p < 0.05),[1]; [6],Yes
same,Experimental Compound Sweetness,[1]; [7],significantly less sweet
same,R-index,[1]; [7],92.00
same,Significantly different (p < 0.05),[1]; [7],Yes
same,sweetness enhancer behaviour,"[2]; 5 ppm in 7% sucrose cola, iso sweet with 8% instead of expected 7.5% sucrose",behaving as a sweetness enhancer
same,Experimental Compound Sweetness,[2]; [8],significantly more sweet
same,R-index,[2]; [8],37.72
same,Significantly different (p < 0.05),[2]; [8],Yes
same,Experimental Compound Sweetness,[2]; [9],Iso sweet
same,R-index,[2]; [9],40.03
same,Significantly different (p < 0.05),[2]; [9],No
same,Experimental Compound Sweetness,[2]; [10],significantly less sweet
same,R-index,[2]; [10],68.97
same,Significantly different (p < 0.05),[2]; [10],Yes
same,Experimental Compound Sweetness,[2]; [11],significantly less sweet
same,R-index,[2]; [11],90.78
same,Significantly different (p < 0.05),[2]; [11],Yes
"C[C@@H]1Cc2ccccc2N1C(=O)NC1CCCCCCC1 [Example 20, (R)-N-cyclooctyl-2-methylindoline-1-carboxamide]",taste of sample solutions (inherent sweetness),[3],sweet
same,"effectiveness at creating modifying, or enhancing the sweet flavour of compositions and consumable products",[3],particularly effective
same,R-index,[1]; [12],27.00
same,Significantly different (p < 0.05),[1]; [12],Yes
same,Experimental Compound Sweetness,[1]; [13],significantly less sweet
same,R-index,[1]; [13],72.31
same,Significantly different (p < 0.05),[1]; [13],Yes
same,Experimental Compound Sweetness,[1]; [14],significantly less sweet
same,R-index,[1]; [14],99.13
same,Significantly different (p < 0.05),[1]; [14],Yes
same,sweetness enhancer behaviour,"[4]; 2 ppm in 7% sucrose, iso sweet with 8% sucrose, expected less sweet than 8%",behaving as a sweetness enhancer
same,Experimental Compound Sweetness,[4]; 7% sugar + 2 ppm vs. 7% sugar,significantly more sweet
same,R-index,[4]; 7% sugar + 2 ppm vs. 7% sugar,35.53
same,Significantly different (p < 0.05),[4]; 7% sugar + 2 ppm vs. 7% sugar,Yes
same,Experimental Compound Sweetness,[4]; 7% sugar + 2 ppm vs. 8% sugar,Iso sweet
same,R-index,[4]; 7% sugar + 2 ppm vs. 8% sugar,61.44
same,Significantly different (p < 0.05),[4]; 7% sugar + 2 ppm vs. 8% sugar,No
same,Experimental Compound Sweetness,[4]; 7% sugar + 2 ppm vs. 9% sugar,significantly less sweet
same,R-index,[4]; 7% sugar + 2 ppm vs. 9% sugar,77.09
same,Significantly different (p < 0.05),[4]; 7% sugar + 2 ppm vs. 9% sugar,Yes
same,Experimental Compound Sweetness,[4]; 7% sugar + 2 ppm vs. 10% sugar,significantly less sweet
same,R-index,[4]; 7% sugar + 2 ppm vs. 10% sugar,88.44
same,Significantly different (p < 0.05),[4]; 7% sugar + 2 ppm vs. 10% sugar,Yes
"C[C@@H]1Cc2ccccc2N1C(=O)NC1CCCCCC1 [Example 18, (R)-N-cycloheptyl-2-methylindoline-1-carboxamide]",taste of sample solutions (inherent sweetness),[3],sweet
same,"effectiveness at creating modifying, or enhancing the sweet flavour of compositions and consumable products",[3],particularly effective
